Experimental data taken from patent US20070059321A1, “Methods of reducing minimal inhibitory concentration of antibiotics and compositions resulting therefrom” (The Hong Kong Polytechnic University, priority 2005, published 2007).
Like-named read-outs stand apart in the source and are kept apart here.

Experiments:
Type in all cases: cell-based
[1] = tested on: MSSA2 (methicillin-sensitive Staphylococcus aureus clinical isolate); assay: Broth microdilution MIC (NCCLS 2000), strain MSSA2; conditions: 18 h
Experimental: (§1) Antimicrobial susceptibility testing was performed by broth assay followed standard laboratory procedures (the National Committee for Clinical Laboratory Standards (NCCLS) protocol 2000). The MIC in this assay was defined as the lowest concentration of the antibiotic under test that inhibited the visible growth of the microorganism under study.
(§2) There were eight strains of Staphylococcus aureus tested. All were from clinical isolates as they represent strains actually present in the community and so of clinical relevance. Three strains were sensitive to methicillin (MSSA), and five strains were resistant to methicillin (MRSA).
(§3) The MIC for each of the eight strains was determined for penicillin G and for vancomycin using dilutions made from the stock preparations purchased (both from Sigma). […]
(§4) The antimicrobial susceptibility test was performed in a 96-well microtitre plate and following standard National Committee for Clinical Laboratory Standards (NCCLS) protocol (NCCLS, 2000). […] Minimal inhibitory concentration (MIC) was determined by the microdilution method in Mueller-Hinton broth (Oxoid, Hampshire, UK), according to the standards of the NCCLS (2000). […]
(§5) Each bacterial strain was plated overnight on Mueller-Hinton agar and then transferred to a broth 3 hours before the assay was performed. […] Microplates were examined 18 hours later and determined for MIC. […]

[2] = tested on: MRSA4 (methicillin-resistant Staphylococcus aureus clinical isolate); assay: Broth microdilution MIC (NCCLS 2000), strain MRSA4; conditions: 18 h
Experimental: as §1, §2, §3, §4, §5

[3] = tested on: MSSA3 (methicillin-sensitive Staphylococcus aureus clinical isolate); assay: Broth microdilution MIC (NCCLS 2000), strain MSSA3; conditions: 18 h
Experimental: as §1, §2, §3, §4, §5

[4] = tested on: MSSA1 (methicillin-sensitive Staphylococcus aureus clinical isolate); assay: Broth microdilution MIC (NCCLS 2000), strain MSSA1; conditions: 18 h
Experimental: as §1, §2, §3, §4, §5

[5] = tested on: MRSA2 (methicillin-resistant Staphylococcus aureus clinical isolate); assay: Broth microdilution MIC (NCCLS 2000), strain MRSA2; conditions: 18 h
Experimental: as §1, §2, §3, §4, §5

[6] = tested on: eight strains of Staphylococcus aureus (MSSA and MRSA clinical isolates); assay: Broth microdilution MIC (NCCLS 2000), summary over all tested strains; conditions: read-out: MIC concentrations of the different strains
Experimental: as §1, §2, §3, §4, §5

[7] = tested on: MRSA3 (methicillin-resistant Staphylococcus aureus clinical isolate); assay: Broth microdilution MIC (NCCLS 2000), strain MRSA3; conditions: 18 h
Experimental: as §1, §2, §3, §4, §5

[8] = tested on: MRSA5 (methicillin-resistant Staphylococcus aureus clinical isolate); assay: Broth microdilution MIC (NCCLS 2000), strain MRSA5; conditions: 18 h
Experimental: as §1, §2, §3, §4, §5

[9] = tested on: MRSA1 (methicillin-resistant Staphylococcus aureus clinical isolate); assay: Broth microdilution MIC (NCCLS 2000), strain MRSA1; conditions: 18 h
Experimental: as §1, §2, §3, §4, §5

Row | SMILES | MIC ([1]; strain MSSA2, extract where present 1% w/v final, 37° C., Mueller-Hinton broth, read-out: MIC) | MIC ([2]; strain MRSA4, extract where present 1% w/v final, 37° C., Mueller-Hinton broth, read-out: MIC) | MIC ([3]; strain MSSA3, extract where present 1% w/v final, 37° C., Mueller-Hinton broth, read-out: MIC) | MIC ([4]; strain MSSA1, extract where present 1% w/v final, 37° C., Mueller-Hinton broth, read-out: MIC) | MIC ([5]; strain MRSA2, extract where present 1% w/v final, 37° C., Mueller-Hinton broth, read-out: MIC) | MIC ([6]; antibiotic alone, range over the eight MSSA and MRSA strains) | MIC ([7]; strain MRSA3, extract where present 1% w/v final, 37° C., Mueller-Hinton broth, read-out: MIC) | MIC ([8]; strain MRSA5, extract where present 1% w/v final, 37° C., Mueller-Hinton broth, read-out: MIC) | MIC ([9]; strain MRSA1, extract where present 1% w/v final, 37° C., Mueller-Hinton broth, read-out: MIC) | MIC [1] | MIC [2] | MIC [3] | MIC [4] | MIC [5] | MIC [6] | MIC [7] | MIC [8] | MIC [9]
1 | CC1(C)S[C@@H]2[C@H](NC(=O)Cc3ccccc3)C(=O)N2[C@H]1C(=O)O [Pen, penicillin G] | 32 µg/mL | 256 µg/mL | 8 µg/mL | 64 µg/mL | 256 µg/mL | 8 to 1020 µg/mL | 1020 µg/mL | 512 µg/mL | 512 µg/mL |  |  |  |  |  |  |  |  | 
2 | CN[C@H](CC(C)C)C(=O)N[C@H]1C(=O)N[C@@H](CC(N)=O)C(=O)N[C@H]2C(=O)N[C@H]3C(=O)N[C@H](C(=O)N[C@H](C(=O)O)c4cc(O)cc(O)c4-c4cc3ccc4O)[C@H](O)c3ccc(c(Cl)c3)Oc3cc2cc(c3O[C@@H]2O[C@H](CO)[C@@H](O)[C@H](O)[C@H]2O[C@H]2C[C@](C)(N)[C@H](O)[C@H](C)O2)Oc2ccc(cc2Cl)[C@H]1O [Van, vancomycin] |  |  |  |  |  |  |  |  |  | 0.5 µg/mL | 0.5 µg/mL | 0.5 µg/mL | 0.5 µg/mL | 1 µg/mL | 0.5 to 1 µg/mL | 1 µg/mL | 0.5 µg/mL | 0.5 µg/mL
